# Source: doi:10.1101/472670v4 (biorxiv, 2019)
# Experiments:
# [1] = biological target: T1, PTP1B (human recombinant, kit BML-AK822) (Homo sapiens, UniProt P18031); assay: colorimetric malachite green; format: biochemical; details: read-out: % inhibition at 10 µM
# T1 sequence (P18031 1-322 limits assumed): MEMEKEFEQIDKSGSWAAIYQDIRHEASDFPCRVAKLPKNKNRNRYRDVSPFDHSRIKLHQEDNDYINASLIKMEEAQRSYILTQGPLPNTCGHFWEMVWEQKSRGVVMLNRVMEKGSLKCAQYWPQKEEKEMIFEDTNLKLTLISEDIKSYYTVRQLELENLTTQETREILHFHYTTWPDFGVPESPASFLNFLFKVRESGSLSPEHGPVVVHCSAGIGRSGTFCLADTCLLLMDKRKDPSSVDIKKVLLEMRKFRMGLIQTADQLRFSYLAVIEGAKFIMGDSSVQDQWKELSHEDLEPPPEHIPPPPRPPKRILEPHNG
# [2] = biological target: T1, PTP1B (human recombinant, kit BML-AK822); assay: biochemical; details: read-out: % inhibition at 10 µM
# [3] = biological target: T1, PTP1B (human recombinant, kit BML-AK822); assay: colorimetric malachite green; format: biochemical
# [4] = biological target: T1, PTP1B (human recombinant, kit BML-AK822); assay: Lineweaver-Burk with slope replot; format: biochemical
SMILES,inhibition at 10 µM [1] [%],inhibition at 10 µM [2] [%],IC50 [3] [µM],Ki [4] [µM]
"COc1ccc(C(=O)N(C2=NCCS2)c2ccccc2C(F)(F)F)cc1 [II, compound II]",48,,,
Cc1ccc(-c2csc(N(C(=O)c3ccc(Cl)cc3)c3ccc(F)cc3)n2)cc1 [compound 15],35.2,,,
Cc1ccc(-c2csc(N(C(=O)CCc3ccccc3)c3ccc(F)cc3)n2)cc1 [compound 16],33,,,
Cc1ccc(-c2csc(N(C(=O)Cc3ccccc3)c3ccc(F)cc3)n2)cc1 [compound 17],,60.3,,
COc1ccc(-c2csc(N(C(=O)c3ccc(Cl)cc3)c3ccc(F)cc3)n2)cc1 [compound 18],,56.9,8.8,

# Second part, the compound after the results:
inhibition at 10 µM [1] [%],inhibition at 10 µM [2] [%],IC50 [3] [µM],Ki [4] [µM],SMILES
,74.7,,,COc1ccc(-c2csc(N(C(=O)CCc3ccccc3)c3ccc(F)cc3)n2)cc1 [compound 19]
37.2,,,,O=C(c1ccc(Cl)cc1)N(c1ccc(F)cc1)c1nc(-c2ccccc2)cs1 [compound 21]
,69,,,O=C(CCc1ccccc1)N(c1ccc(F)cc1)c1nc(-c2ccccc2)cs1 [compound 22]
,69.9,6.9,,COc1ccc(CCN(C(=O)CCc2ccccc2)c2nc(-c3ccc(OC)cc3)cs2)cc1 [compound 37]
,76.6,5.8,8.59,COc1ccc(CCN(C(=O)Cc2ccccc2)c2nc(-c3ccc(OC)cc3)cs2)cc1 [compound 38]
